In ChEMBL document CHEMBL5370581, “NMR-Metabolomic Profiling and Genome Mining Drive the Discovery of Cyclic Decapeptides from a Marine Streptomyces” (J Nat Prod, 2023):
pIC50: −log10 of the molar value.

Tests used:
Type in all cases: functional, cell-based
[1] = tested on: HEL; test: Cytotoxicity against HEL cells assessed as reduction in cell viability incubated for 72 hrs by WST assay; conditions: Homo sapiens
[2] = tested on: NCI-H1975; test: Cytotoxicity against human NCI-H1975 cells assessed as reduction in cell viability incubated for 48 hrs by MTT assay; conditions: NCI-H1975, 48 h
[3] = tested on: NCI-H1299; test: Cytotoxicity against human NCI-H1299 cells assessed as reduction in cell viability incubated for 48 hrs by MTT assay; conditions: NCI-H1299, 48 h
[4] = tested on: A549/TR; test: Cytotoxicity against human A549/Taxol cells assessed as reduction in cell viability incubated for 48 hrs by MTT assay
[5] = tested on: A549; test: Cytotoxicity against human A549 cells assessed as reduction in cell viability incubated for 72 hrs by SRB assay; conditions: A549, 72 h
[6] = tested on: HCT-116; test: Cytotoxicity against human HCT-116 cells assessed as reduction in cell viability incubated for 72 hrs by SRB assay; conditions: HCT-116, 72 h
[7] = tested on: MDA-MB-231; test: Cytotoxicity against human MDA-MB-231 cells assessed as reduction in cell viability incubated for 72 hrs by SRB assay; conditions: MDA-MB-231, 72 h
[8] = tested on: SK-HEP1; test: Cytotoxicity against human SK-HEP1 cells assessed as reduction in cell viability incubated for 72 hrs by SRB assay; conditions: SK-HEP1, 72 h
[9] = tested on: SNU-638; test: Cytotoxicity against human SNU-638 cells assessed as reduction in cell viability incubated for 72 hrs by SRB assay; conditions: SNU-638, 72 h
[10] = tested on: K562; test: Cytotoxicity against human K562 cells assessed as reduction in cell viability incubated for 72 hrs by SRB assay; conditions: K562, 72 h

SMILES | pIC50 [1] | pIC50 [2] | pIC50 [3] | pIC50 [4] | pIC50 [5] | pIC50 [6] | pIC50 [7] | pIC50 [8] | pIC50 [9] | pIC50 [10]
CC(C)C[C@@H]1NC(=O)[C@H](Cc2ccccc2)N(C)C(=O)[C@@H](C)NC(=O)[C@H](C(C)C)N(C)C(=O)CCNC(=O)[C@H](C)N(C)C(=O)[C@H](C(C)C)NC(=O)[C@H](Cc2c[nH]c3ccccc23)N(C)C(=O)[C@@H]2CCCNN2C(=O)[C@H](CO)N(C)C1=O | 4.85 | 4.62 | 4.96 | 4.77 |  |  |  |  |  | 
CC[C@H](C)[C@@H]1NC(=O)[C@H](Cc2c[nH]c3ccccc23)N(C)C(=O)[C@@H]2CCCNN2C(=O)[C@H](CO)N(C)C(=O)[C@H](CC(C)C)NC(=O)[C@H](Cc2ccccc2)N(C)C(=O)[C@@H](C)NC(=O)[C@H](C(C)C)N(C)C(=O)CCNC(=O)[C@H](C)N(C)C1=O | 4.89 | 5.10 | 4.96 | 4.72 | 6.70 | 6.70 | 6.70 | 6.70 | 6.70 | 6.70
COc1cccc2c1C(=O)c1c(O)c3c(c(O)c1C2=O)C[C@@](O)(C(=O)CO)C[C@@H]3O[C@H]1C[C@H](N)[C@H](O)[C@H](C)O1 [DOXORUBICIN] | 7.30 | 6.92 | 5.85 | 5.80 |  |  |  |  |  | 
COc1cc([C@@H]2c3cc4c(cc3[C@@H](O[C@@H]3O[C@@H]5CO[C@@H](C)O[C@H]5[C@H](O)[C@H]3O)[C@H]3COC(=O)[C@H]23)OCO4)cc(OC)c1O [ETOPOSIDE] |  |  |  |  | 6.40 | 6.40 | 6.40 | 6.40 | 6.40 | 6.40
